Measurements: patent US4444776A, “Dipyrido (4,3-B) (3,4-F) indoles, process for obtaining them, therapeutical use and pharmaceutical compositions” (priority 1977, dated 1984)

What was measured:
[1] = system: chloromonocytary tumoral cells; assay: Test 9: action on chloromonocytary tumoral cells (chloroleukemia); type: in vivo, ICFW mouse
Protocol: Test 9: Action on chloromonocytary tumoral cells
In this test, the action of the products according to the invention on chloromonocytary tumoral cells was determined according to the chloroleukemia of the mouse test (ICFW mouse, co-sanguine CFW strain) isolated in Unit 22 (B. TAMBOURIN and F. WENDLING) of the "Institut National de la Sante et de la Recherche Medicale- Paris" (I.N.S.E.R.M.) in a mouse injected with a variant of the Friend virus.
The tumour kills all the animals injected in 19.3± 2 days. This tumour develops in semi-solid ascitic form; the peritoneum is invaded, both by solid tumoral masses and cells in suspension in the ascitic liquid. The tumour is transmitted by the cells of the suspension which produce the tumoral masses and the ascitic cells.

[2] = system: L 1210 leukemia; assay: Test 1: antitumoral properties on L 1210 leukemia (Table I); type: in vivo, mouse
Protocol: The lower animal antitumoral properties of the compounds according to the invention have been determined by their curative action on inoculated test L-1210 leukemia. [ZUBROD C. G., Proc. Nat. Acad. Sci. 1972, 69, 1042-1047 and SCHEPARTZ SA. SCREENING, 1971, CANCER Chemother. Rep. Part 3 vol.2 p.3].
This leukemia is maintained in ascitic form by passage (i.p. route) on CBDl (C57 B16×DBA/2)F1 mice. The preparation to be tested are injected by the intraperitoneal route at least one day after the inoculation of the cells (one injection only). The results are expressed in increased life span per cent (ILS %) according to KESSEL et al. Cancer Res. 1971, 31, 1883-1887) or in percentage of the number of cells killed by the product (the survival of the animals is proportional to the number of cells injected).
The following tests were made in groups of 10 mice, unless stipulated to the contrary.
Test 1: Study of the antitumoral properties of the compounds of the invention on L 1210 leukemia
The lower animal antitumoral properties of the compounds according to the invention were determined by their curative action on test inoculated L 1210 leukemia.
This leukemia was maintained on CBD 1 (C 57 B 16×DBA/2) F1 mice. The compounds to be tested were injected by the IP route one or more days after the inoculation of the cells (single injection). The results obtained, shown in table I hereinafter, are expressed in percentage of increase of life span (ILS %) and in percentage of the number of cells killed by the compound to be tested, the survival of the animals being proportional to the number of cells injected.
The percentage of the like span ILS % (Cancer. Res. 1971, 31, 1883-1887) is the following ratio: [formula] S^t =survival of the treated animals S^c =survival of the control animals

[3] = system: Moloney virus / viro-induced Moloney sarcoma; assay: Test 3: development of the viro-induced Moloney sarcoma; type: in vivo, new-born mice; settings: 1 μg/mouse (0.5 mg/kg)
Text: The study of the development of the MOLONEY viro-induced sarcoma (Nat. Cancer. Inst. Monograph 22, 139-142, 1966) has also made it possible to determine that the compounds according to the invention are antiviral and antitumoral agents in lower animals.
Test 3: Study of the development of the viro-induced Moloney sarcoma
The injection of Moloney virus [C. Jasmin et al. J. Nat. Cander Inst. 1974 53 469-474] by the intramuscular i.m. route into new-born mice led after 10 days to the formation of a sarcoma. The appearance of the tumour was proportional to the dose of virus injected. The viral inoculum was constituted by a tumor homogenate diluted to 1/250, this corresponding to 10 TID 50, i.e. to the dose of virus inducing the appearance of a tumour in 50% of the animals infected. At this dose, 80 to 100% of the animals developed a tumour, and 100% of the survivors became leukemic. The experiment thus consisted in noting the number of mice presenting tumours, the regression, or not, of these tumours and finally in sacrificing the surviving animals after 2 months and in noting the presence or absence of splenomegaly (evidence of a leukemia). The virus was inoculated into new-born mice of 3 to 5 days by the IM route, and the mice received the following day (J+1) or five hours after injection (JO+5 hours) the product to be tested by the IP route.

[4] = Test 8: acute toxicity in vivo, ICFW mice; settings: mouse, read-out: LD 500
Protocol: (§1) Test 8: Acute toxicity in vivo
(§2) The products to be tested were injected by the IP route into groups of 10 mice at various dilutions. Each day, the number of dead animals is noted. If the doses are well chosen, a 100% lethal dose and a 50% lethal dose have been able to be defined for each product. This study is limited to two months. Two isogenic mouse strains were systematically used: C3H/He and ICFW.

[5] = system: ICFW mice; assay: Test 8: acute toxicity in vivo, ICFW mice; settings: mouse, ip
Protocol: as §1, §2

[6] = system: C3H/He mice; assay: Test 8: acute toxicity in vivo, C3H mice; settings: mouse, ip
Protocol: as §1, §2

[7] = Test 8: acute toxicity in vivo, C3H mice; settings: mouse, read-out: LD 500
Protocol: as §1, §2

[8] = experiment no 1, 10^3 cells, 50 mg/kg, J+2
[9] = experiment no 1, 10^4 cells, 50 mg/kg, J+2
[10] = experiment no 1, 10^5 cells, 50 mg/kg, J+2
[11] = experiment no 1, 10^6 cells, 50 mg/kg, J+2
[12] = experiment no 2, 10^4 cells, 50 mg/kg, J+1
[13] = experiment no 2, 10^5 cells, 50 mg/kg, J+1
[14] = experiment no 2, 10^6 cells, 50 mg/kg, J+1
[15] = 10^3 cells, 0.01 mg/mouse (0.5 mg/kg), J+1
[16] = 10^3 cells, 0.1 mg/mouse (5 mg/kg), J+1
[17] = 10^4 cells, 0.1 mg/mouse (0.5 mg/kg) [sic], J+1
[18] = 10^4 cells, 0.1 mg/mouse (5 mg/kg), J+1

SMILES: Cc1c2ccncc2c(C)c2c1[nH]c1ccncc12 [Example 1, 5,11-dimethyl dipyrido [4,3-b][3,4-f] indole]
- Mean survival time after treatment ([1]; 40 mg/kg 6 hours after inoculation, without treatment 18.5 ± 2 days): 25.3 ± 3.1 days
- ILS % [2, 8]: 3%
- Number of cells found [2, 8]: 800
- Number of cells killed [2, 8]: 20%
- Surviving mice [2, 8]: 1/10
- ILS % [2, 9]: 14,78%
- Number of cells found [2, 9]: 6,000
- Number of cells killed [2, 9]: 40%
- ILS % [2, 10]: 15,73%
- Number of cells found [2, 10]: 40,000
- Number of cells killed [2, 10]: 60%
- Surviving mice [2, 10]: 0
- ILS % ([2]; experiment no 1, 10^6 cells, 1 mg/mouse (50 mg/kg), IP, J+2): 34,32%
- Number of cells found [2, 11]: 10^5
- Number of cells killed [2, 11]: 90%
- Surviving mice [2, 11]: 0
- ILS % [2, 12]: 11,8%
- Number of cells found [2, 12]: 5000
- Number of cells killed [2, 12]: 50%
- ILS % [2, 13]: 38,1%
- Number of cells found [2, 13]: 2000
- Number of cells killed [2, 13]: 98%
- ILS % ([2]; experiment no 2, 10^6 cells, 1 mg/mouse (50 mg/kg), J+1): 47,3%
- Number of cells found [2, 14]: 8000
- Number of cells killed [2, 14]: 99%
- ILS % (difference with the controls) ([2]; experiment no 3, 0,1 and 0,05 mg/mouse, 10^4 and 10^3 cells): no significant difference
- animals presenting a tumour ([3]; JO+5 hours): 50%
- animals survived ([3]; JO+5 hours): 75%
- mice with leukemia ([3]; JO+5 hours): 65%
- tumours regressed ([3]; JO+5 hours): 30%
- LD50 ([4]; ip): 150 mg/kg
- LD 100 [5]: 200 mg/kg
- LD 100 [6]: 200 mg/kg
- LD50 ([7]; ip): 100 mg/kg

SMILES: CCN(CC)CCCNc1nccc2c(C)c3[nH]c4ccncc4c3cc12 [Example 7, 1-(γ-diethylaminopropyl)amino-5-methyl-dipyrido-[4,3-b][3,4-f] indole]
- Mean survival time after treatment ([1]; 1 mg/kg 24 hours after inoculation, without treatment 18.9 ± 1.8 day): 29.0 ± 3.0 days
- ILS % [2, 15]: 17.4%
- Number of cells found [2, 15]: 80
- Number of cells killed [2, 15]: 92%
- ILS % [2, 16]: 23.2%
- Number of cells found [2, 16]: 40
- Number of cells killed [2, 16]: 96%
- Surviving mice [2, 16]: 5/10
- ILS % ([2]; 10^4 cells, 0.1 mg/mouse (0.5 mg/kg) [sic], IP, J+1): 33.3%
- Number of cells found [2, 17]: 60
- Number of cells killed [2, 17]: 99.94%
- Surviving mice [2, 17]: 1/10
- ILS % ([2]; 10^4 cells, 0.1 mg/mouse (5 mg/kg), IP, J+1): 11.5%
- Number of cells found [2, 18]: 10^3
- Number of cells killed [2, 18]: 90%
- animals survived ([3]; J+1): 90%
- mice presenting tumours ([3]; J+1): 70%
- mice with leukemia ([3]; J+1): 0%
- tumours regressed ([3]; J+1): 90%
- animals presenting a tumour ([3]; JO+5 hours): 5%
- animals survived ([3]; JO+5 hours): 100%
- mice with leukemia ([3]; JO+5 hours): 40%
- tumours regressed ([3]; JO+5 hours): 100%
- LD50 ([4]; ICFW, IP): 15 mg/kg
- LD 100 [5]: 25 mg/kg
- LD 100 [6]: 35 mg/kg
- LD50 ([7]; C3H, IP): 20 mg/kg
